According to ChEMBL document CHEMBL1141602, “Chemical library and structure-activity relationships of 11-demethyl-12-oxo calanolide A analogues as anti-HIV-1 agents” (J Med Chem, 2008):
≈ marks a conversion by molar mass, not a printed value.

Assays:
[1] = test system: Human immunodeficiency virus 1; assay: Antiviral activity against HIV1 at 1.0 uM; type: functional
[2] = test system: HOS; assay: Toxicity in CD4 expressing HOS cells at 10 uM; type: cell-based; details: human
[3] = test system: Human immunodeficiency virus 1; assay: Antiviral activity against HIV1; type: functional, organism-based
[4] = Therapeutic index, ratio of IC50 for HOS cells to EC50 for human HIV1; type: cell-based; details: read-out: Ratio IC50/EC50
[5] = test system: Mycobacterium tuberculosis; assay: Antimicrobial activity against Mycobacterium tuberculosis; type: functional

SMILES	inhibition at 1 µM [1]	Activity [2]	other results
CC1CC(=O)c2c(c3c(c4c(-c5ccc([N+](=O)[O-])cc5)cc(=O)oc24)OC(C)(C)C=C3)O1 (stereo unspecified)	51.9%		
CCCCc1cc(=O)oc2c3c(c4c(c12)OC(c1ccccc1)C=C4)OC(C)CC3=O (stereo unspecified)	96.4%	10%	
CCCCC1C=Cc2c3c(c4oc(=O)cc(CCC(F)(F)F)c4c2O1)C(=O)CC(C)O3 (stereo unspecified)	53.6%		
CCCc1cc(=O)oc2c1c1c(c3occc(=O)c32)C=CC(C)(C)O1	64.9%		
CCc1cc(=O)oc2c3c(c4c(c12)OC(c1ccccc1)C=C4)OC(C)CC3=O (stereo unspecified)	96.4%	10%	
CCCc1cc(=O)oc2c3c(c4c(c12)OC(CCC)C=C4)OC(C)CC3=O (stereo unspecified)	54.1%		
CCCCCC1CC(=O)c2c(c3c(c4c(CCC)cc(=O)oc24)OC(C)(C)C=C3)O1 (stereo unspecified)	46.4%	< 10%	
C/C=C/C1C=Cc2c3c(c4oc(=O)cc(CC)c4c2O1)C(=O)CC(C)O3 (stereo unspecified)	56.4%		
CCCC1C=Cc2c3c(c4oc(=O)cc(CC)c4c2O1)C(=O)CC(C)O3 (stereo unspecified)	97%	10%	
CCCc1c(F)c(=O)oc2c3c(c4c(c12)OC(C)(C)C=C4)OC(C)CC3=O (stereo unspecified)	45.3%	10%	
CCc1c(F)c(=O)oc2c3c(c4c(c12)OC(C)(C)C=C4)OC(C)CC3=O (stereo unspecified)		10%	
CCCc1cc(=O)oc2c3c(c4c(c12)OC(C)(C)C=C4)OC(CCC)CC3=O (stereo unspecified)	61.9%	< 10%	EC50 [3]: 32.5 nM; selectivity ratio [4]: 102
C/C=C/C1C=Cc2c3c(c4oc(=O)c(F)c(CC)c4c2O1)C(=O)CC(C)O3 (stereo unspecified)	46.2%		
CCCc1cc(=O)oc2c3c(c4c(c12)OC(C)C=C4)OCC(C)C3=O (stereo unspecified)	62.4%	10%	
C/C=C/C1C=Cc2c3c(c4oc(=O)c(Cl)c(CCC)c4c2O1)C(=O)CC(C)O3 (stereo unspecified)	57.3%		
CCCc1c(Cl)c(=O)oc2c3c(c4c(c12)OCC(C)C4OCC)OC(C)CC3=O (stereo unspecified)	51.7%		
CCCCC1C=Cc2c3c(c4oc(=O)cc(CCC)c4c2O1)C(=O)C(C)CO3 (stereo unspecified)	35.2%	< 10%	
CCCc1cc(=O)oc2c3c(c4c(c12)OC(C)(C)C=C4)OC(c1ccc(C)cc1)CC3=O (stereo unspecified)	57%		
CCCc1cc(=O)oc2c3c(c4c(c12)OC(c1ccccc1[N+](=O)[O-])C=C4)OC(C)CC3=O (stereo unspecified)	52.6%		
CCc1c(F)c(=O)oc2c3c(c4c(c12)OC(C)C=C4)OC(C)CC3=O (stereo unspecified)	39.5%		
CCCc1c(Cl)c(=O)oc2c3c(c4c(c12)OC(c1ccccc1)C=C4)OC(C)CC3=O (stereo unspecified)	96.3%	> 80%	
CCCc1cc(=O)oc2c3c(c4c(c12)OC(C)(C)C=C4)OCC(C)C3=O (stereo unspecified)	38.9%	10%	
CCc1cc(=O)oc2c3c(c4c(c12)OC(C)(C)C=C4)OC(C)CC3=O (stereo unspecified)	73.2%		EC50 [3]: 270 nM; selectivity ratio [4]: > 1000

SMILES	inhibition at 1 µM [1]	Activity [2]	other results
CCCc1cc(=O)oc2c3c(c4c(c12)OC(c1ccccc1)C=C4)OCC(C)C3=O (stereo unspecified)		< 10%	
CCCc1c(Cl)c(=O)oc2c3c(c4c(c12)OCC(C)=C4)OC(C)CC3=O (stereo unspecified)	49.1%		
C/C=C/C1C=Cc2c3c(c4oc(=O)cc(CCC)c4c2O1)C(=O)C(C)CO3 (stereo unspecified)	37.8%		
CCCCc1cc(=O)oc2c3c(c4c(c12)OC(C)C=C4)OC(C)CC3=O (stereo unspecified)	75.4%		
CC1CC(=O)c2c(c3c(c4c5c(c(=O)oc24)CCCC5)OC(C)(C)C=C3)O1 (stereo unspecified)	67%		
CCCCC1C=Cc2c3c(c4oc(=O)cc(CC)c4c2O1)C(=O)CC(C)O3 (stereo unspecified)	96.7%	10%	
CCCc1c(F)c(=O)oc2c3c(c4c(c12)OCC(C)=C4)OC(C)CC3=O (stereo unspecified)	47.1%		
CCc1cc(=O)oc2c3c(c4c(c12)OC(C)C=C4)OC(C)CC3=O (stereo unspecified)	57.4%		
CCCc1cc(=O)oc2c3c(c4c(c12)OC(c1ccccc1[N+](=O)[O-])CC4OCC)OC(C)CC3=O (stereo unspecified)	61%	< 10%	
CC1CC(=O)c2c(c3c(c4c(CN5CCN(C)CC5)cc(=O)oc24)OC(C)(C)C=C3)O1 (stereo unspecified)	48.3%		
CC1CC(=O)c2c(c3c(c4c(CCC(F)(F)F)cc(=O)oc24)OC(c2ccccc2)C=C3)O1 (stereo unspecified)	47.6%		
COc1cc(-c2cc(=O)oc3c4c(c5c(c23)OC(C)(C)C=C5)OC(C)CC4=O)cc(OC)c1OC (stereo unspecified)	58%		
CCCc1cc(=O)oc2c3c(c4c(c12)OC(C)(C)C=C4)OC(c1ccccc1)CC3=O (stereo unspecified)	62.7%	< 10%	
CCCc1c(Cl)c(=O)oc2c3c(c4c(c12)OC(C)C=C4)OC(C)CC3=O (stereo unspecified)	55.7%		
CCCc1c(Cl)c(=O)oc2c3c(c4c(c12)OC(C)(C)C=C4)OC(C)CC3=O (stereo unspecified)	68.1%		EC50 [3]: 370 nM; selectivity ratio [4]: 243
CCCc1cc(=O)oc2c3c(c4c(c12)OC(C)(C)C=C4)OC(CBr)CC3=O (stereo unspecified)	93.5%		EC50 [3]: 2.85 nM; selectivity ratio [4]: > 10500
CCCc1cc(=O)oc2c3c(c4c(c12)OC(C)(C)C=C4)OC(C)CC3=O (racemic)	73.1%		
CCCc1cc(=O)oc2c3c(c4c(c12)OC(C)(C)C=C4)OC(C)CC3O (racemic)			EC50 [3]: 310 nM
CCCc1cc(=O)oc2c3c(c4c(c12)OC(C)(C)C=C4)O[C@@H]1CCCC[C@@H]1C3=O (relative stereo)	59.3%	< 10%	
CCCc1cc(=O)oc2c3c(c4c(c12)OC(C)(C)C=C4)O[C@H]1CCCC[C@@H]1C3=O (relative stereo)	40%	< 10%	
CCCc1cc(=O)oc2c3c(c4c(c12)OC(C)(C)C=C4)OC(C)(C)CC3=O [114, 10,10-DIMETHYL-11-DEMETHYL-12-OXO CALANOLIDE A]	68.3%		EC50 [3]: 640 nM; selectivity ratio [4]: 47
CCCc1cc(=O)oc2c3c(c4c(c12)OC(C)(C)C=C4)O[C@H](C)[C@@H](C)[C@@H]3O [CALANOLIDE A]			EC50 [3]: 100 nM; MIC [5]: 3.13 µg/mL (≈ 8.45 µM)
